Source: patent US20220145335A1, “Bio-catalyzed Synthesis of Potent Anti-inflammatory Agents from Medroxyprogesterone Acetate” (priority 2022, published 2022)
Read-outs that look alike come from different tables or passages of the source.

Key:
[1] = test system: T-cells (peripheral blood mononuclear cells); assay: T-cell proliferation assay (PHA-stimulated PBMC, tritiated thymidine incorporation); assay type: cell-based, human; conditions: in vitro; for IC50: PHA-stimulated human PBMC, 72 h + 18 h thymidine pulse, read-out: IC50, T-cell proliferation inhibition; for T-cell proliferation inhibitory activity, result in words: compared to substrate (1) and standard prednisolone
Experimental: T-Cell Proliferation Assay The T-cell proliferation inhibitory activity of compounds 2-6 were evaluated by following the method of Nielsen et al. (1998). Peripheral blood mononuclear cells (PBMC) were isolated by Ficoll-Hypaque gradient centrifugation from the blood of healthy human volunteers. The concentration of the cell was adjusted to 2×10^6 cells/mL in RPMI-1640 media containing 5% FBS (Fetal bovine serum) and then 5 μg/mL phytohemagglutinin (PHA) was added into each well of a sterile 96-well plates. Different concentrations of test compounds (0.2, 1, 5, and 25 μg/mL) were then added, each in triplicate. Positive control wells contained cells and PHA, whereas the negative control contains cells alone. The plate was incubated in 5% CO2 at 37° C. for 72 hours and the cells were pulsed with 25 μL of tritiatedthymidine (0.5 μci/well), and the incubation was continued for 18 hours. Cells were harvested on a glass fiber filter, and the effect of the test compounds on proliferation was evaluated using a LS65000 liquid scintillation counter (Beckman Coulter, Fullerton, Calif., USA) quantitatively using a LS65000 liquid scintillation counter (Beckman Coulter, CA, USA). Counts per minute (CPM) were recorded, and the inhibiton of T-cell proliferation was calculated in comparison to control containing cells and PHA.

SMILES | IC50 [1] [µM] | IC50 ([1]; 90 h) [µM] | T-cell proliferation inhibitory activity, result in words [1] | melting point [°C]
CC(=O)O[C@]1(C(C)=O)CC[C@H]2[C@@H]3C[C@H](C)C4=CC(=O)CC[C@]4(C)[C@H]3CC[C@@]21C [Compound 1, Medroxyprogesterone acetate] | 6.48 ± 5.18 | – | – | –
CC(=O)O[C@]1(C(C)=O)CC[C@H]2[C@@H]3C[C@H](C)C4=CC(=O)CC[C@]4(C)[C@H]3C(=O)C[C@@]21C [Compound 2, 17α-Acetoxy-6α-methylpregn-4-ene-3,11,20-trione] | < 0.5 | < 0.5 | potent inhibitors | 238 to 240
CC(=O)O[C@]1(C(C)=O)C[C@@H](O)[C@H]2[C@@H]3C[C@H](C)C4=CC(=O)CC[C@]4(C)[C@H]3C(=O)C[C@@]21C [Compound 3, 17α-Acetoxy-15β-hydroxy-6α-methylpregn-4-ene-3,11,20-trione] | – | 41.6 ± 8.14 | moderately active | 265 to 268
CC(=O)O[C@]1(C(C)=O)CC[C@H]2[C@@H]3C[C@@](C)(O)C4=CC(=O)CC[C@]4(C)[C@H]3C(=O)C[C@@]21C [Compound 4, 17α-Acetoxy-6β-hydroxy-6α-methylpregn-4-ene-3,11,20-trione] | – | 40.14 ± 0.12 | moderately active | 232 to 233
CC(=O)O[C@]1(C(C)=O)C[C@@H](O)[C@H]2[C@@H]3C[C@H](C)C4=CC(=O)CC[C@]4(C)[C@H]3[C@@H](O)C[C@@]21C [Compound 5, 17α-Acetoxy-11β,15β-dihydroxy-6α-methylpregn-4-ene-3,20-dione] | < 0.5 | < 0.5 | potent inhibitors | 228 to 230
CC(=O)O[C@]1(C(C)=O)CC[C@H]2[C@@H]3C[C@@](C)(O)C4=CC(=O)CC[C@]4(C)[C@H]3[C@@H](O)C[C@@]21C [Compound 6, 17α-Acetoxy-11β,6β-dihydroxy-6α-methylpregn-4-ene-3,20-dione] | 8.64 ± 0.02 | 8.64 ± 0.02 | strong activity | 152 to 154
C[C@]12C=CC(=O)C=C1CC[C@@H]1[C@@H]2[C@@H](O)C[C@@]2(C)[C@H]1CC[C@]2(O)C(=O)CO [prednisolone, reference compound] | 9.75 ± 0.03 | 9.75 ± 0.03 | – | –
